# Columns and labels:
# [1] = system: HCT-116 cells transfected with human c-FLIP or empty vector; experiment: Annexin V-FITC assay, readhesion of HCT-116 cells transfected with human c-FLIP or empty vector; assay type: cell-based; settings: readhesion 8 hours
# Method: Since HCT-116 colon cancer cells have relatively low levels of FLIP compared with other cancer cell lines (FIG. 13A), they were transfected with human c-FLIP. HCT-116 cells that were transfected with human c-FLIP or empty vector were transiently suspended and allowed to readhere in the presence of BAY 11-7085 for 8 hours. […] Thus, FLIP appears to be an important target of BAY 11-7085 and is able to inhibit BAY 11-7085-mediated apoptosis during colon cancer cell readhesion.
# [2] = system: transiently suspended HT-29 cells; experiment: Apoptosis of transiently suspended cells during readhesion (annexin V assay); assay type: cell-based, human
# Method: HT-29 cells that were either transiently suspended with trypsin-EDTA or adherent for three days, were treated at time zero with DMSO or 10-100 μM BAY 11-7085. The percent of apoptotic cells was determined using the annexin V flow cytometry assay and graphed versus the dose of BAY 11-7085. FIG. 4B are photographs showing DLD-1, FIG. 4C are photographs showing HCT-116, and FIG. 4D are photographs showing HT-29 cells that were transiently suspended in trypsin-EDTA and allowed to readhere to glass coverslips for 1-24 hours. The cells were fixed and immunostained with an NF-κB p65 subunit monoclonal antibody.
# The transiently suspended cells were lysed and allowed to bind to DNA oligonucleotides, containing the NF-κB consensus binding site, that were immobilized to 96-well plates. NF-κB protein bound to the oligonucleotides was detected by an antibody to the p65 subunit that only recognized p65 that is bound to DNA. The positive control was HeLa cells that were stimulated with TNFα. A control was performed using excess free NF-κB oligonucleotides (Competitor). […] NF-κB binding activity was determined by the TransAM assay as in FIG. 5A. […] The data shown represent typical results of three separate experiments. […] An immunoblot for COX-2 was performed.
# The percentage of apoptotic cells was determined using the annexin V assay. The data points represent the averages of three experiments; bars, +−.SE. E. DLD-1 and F. HT-29 cells were transduced with an adenovirus containing the IκB super-repressor construct. After 3 days, the cells were transiently suspended and allowed to readhere in the presence of subapoptotic concentrations of BAY 11-7085 or DMSO (vehicle) for 8 hours. The data are expressed as fractions of cells surviving compared with the controls (no adenovirus) and were quantitatively determined by staining the remaining adherent cells with crystal violet.
# Single cell suspensions were plated at 100,000 cells per well in 24-well plates in media containing DMSO, BAY 11-7082, BAY 11-7085, or MG-132 for 8-24 hours in an incubator. Alternatively, DMSO, BAY 11-7082, BAY 11-7085, or MG-132 were added to cells that were confluent and adherent for several days. The nonadherent cells were aspirated off with the media and spun for 3 minutes at 2,000 rpm in 15 mL polypropylene tubes. The adherent cells were washed twice with PBS, dispersed in trypsin, and spun down for 3 minutes at 2,000 rpm in 15 mL polypropylene tubes. The nonadherent and adherent cells were resuspended in 1× binding buffer (10 mM HEPES/NaOH, pH 7.4, 140 mM NaCl, and 2.5 mM CaCl2) to a final concentration of 10^6 cells/mL. 100 μL of the cell solution were transferred to a 5 mL culture tube and incubated with 5 μL of annexin V-FITC-conjugated monoclonal antibody (Pharmingen) and 10 μl, of propidium iodide (from a 50 μg/mL stock solution made in PBS) in the dark at 25° C. for 15 minutes. 400 μL of binding buffer was added to each tube and the cells were analyzed by flow cytometry immediately. The percent of apoptosis was determined as the percent of annexin V-positive, propidium iodide-negative cells of the total cells counted.
# Various concentrations of BAY 11-7085 were added to HT-29 cells that were transiently suspended in trypsin-PBS for approximately 15 minutes before replating. The transiently suspended cells were quickly allowed to readhere in order to prevent anoikis. Alternatively, BAY 11-7085 was added to adherent HT-29 cell monolayers.
# [3] = system: HT-29 cells; experiment: One-hour cell adhesion assay (crystal violet); assay type: cell-based, human; settings: adherent HT-29 pretreated for three days with various concentrations, then one-hour adhesion assay
# Source text: FIG. 3 is a group of graphs that show NF-κB inhibitors cause apoptosis of colon cancer cells. […] The data points represent the average percent of annexin V-positive, propidium iodide-negative cells (of the total cells counted) from triplicate experiments. The error bars represent the standard error of the means. […] The results shown are a graphic representation of individual flow cytometry results expressed as the percentage of cells that were annexin V-positive of those that excluded propidium iodide. […] An immunoblot of the lysates for cleaved PARP was performed. Each lane represents equal total protein concentrations. […] The cells were allowed to adhere to plastic dishes for 1 hour after which they were washed gently in PBS and stained with crystal violet. The crystal violet stained cells were solubilized in deoxycholate and the absorbance detected in a spectrophotometer at 590 nm. The adherent cells were expressed as a fraction of the controls. Each data point represents the average of triplicate experiments and the error bars the standard errors of the means.
# Even though BAY 11-7085 induced a loss of cell adhesion, it was important to show whether HT-29 cells were actually susceptible to anoikis.
smiles,measurement,setting,value
"CC(C)(C)c1ccc(S(=O)(=O)/C=C/C#N)cc1 [BAY 11-7085, (2E)-3-[4-(tertiarybutylphenyl)sulfonyl]-2-propenenitrile]",apoptosis (Annexin V-FITC assay),[1]; HCT-116 over-expressing FLIP,much more resistant to BAY 11-7085
same,apoptosis (Annexin V-FITC assay),[1]; control (empty vector) HCT-116,induced apoptosis
same,BAY 11-7085-induced apoptosis during readhesion,"[2]; HT-29 transiently suspended, treated and allowed to readhere, 8 hours",showed the same propensity for BAY 11-7085-induced apoptosis
same,apoptosis of transiently suspended HT-29 cells,"[2]; all concentrations tested (10-100 μM), cells suspended in trypsin-PBS then replated",caused a significant increase in apoptosis
same,cell adhesion,[3],significant and rapid inhibition of cell adhesion at high concentrations
